Several values for one entry are separate records, joined by “and”; a condition that tells them apart may be missing. Identical values can stand only once.
Experiments:
[1] = system: relapsed/refractory indolent non-Hodgkin's lymphoma (R/R iNHL); experiment: Phase 1 study: anti-tumor efficacy, investigator-assessed, modified Lugano criteria; format: in vivo, human
Procedure: Efficacy endpoints included ORR; duration of response (DOR); progression-free survival (PFS); time to first response (TTR); and change in tumor size from baseline. Response was assessed by investigators based on the modified Lugano Classification lymphoma response criteria (modified Lugano criteria). If complete response (CR) was achieved by CT- or MRI-based assessment (not including bone marrow biopsy), PET/CT was performed to assess metabolic response (except for patients whose FDG-avidity was “non-avid” in the screening test). Additionally, a bone marrow biopsy was also performed if complete metabolic response was confirmed by PET/CT-based assessment. For efficacy outcomes, the Clopper–Pearson method was used to obtain 95% confidence intervals (CIs) for ORR. The Kaplan–Meier method was used to estimate the DOR and PFS for each cohort and overall. Statistical analyses were performed using SAS® software version 9.4 (SAS Institute Inc., Cary, NC, USA).

[2] = system: patients with B-cell malignancies; conditions: phase 1b; cited from earlier work
[3] = N = 9, median follow-up 17.5 months

In the case of CN1CCC(c2ccccc2CC(C)(C)Nc2nc(N3CCOCC3)nc(-n3c(C(F)F)nc4ccccc43)n2)CC1 [zandelisib], the “median PFS” value ([1]; 45 mg group) was 11.1 months, the “Best overall response: Complete response” value ([1]; 45 mg, n = 3) was 0 (0.0) n (%) and the “Best overall response: Partial response” value ([1]; 45 mg, n = 3) was 3 (100.0) n (%). For the same molecule, the “Best overall response: Progressive disease” value ([1]; 45 mg, n = 3) was 0 n (%), the “Best overall response: Stable disease” value ([1]; 45 mg, n = 3) was 0 n (%) and the “Objective response rate, % (95% CI)” value ([1]; 45 mg, n = 3) was 100.0 (29.2–100.0) %. For the same molecule, the “median DOR” value ([1]; 60 mg group) was 11.3 months, the “median PFS” value ([1]; 60 mg group) was 13.3 months and the “Best overall response: Complete response” value ([1]; 60 mg, n = 6) was 2 (33.3) n (%). The “Best overall response: Partial response” value ([1]; 60 mg, n = 6) was 4 (66.7) n (%), the “Best overall response: Progressive disease” value ([1]; 60 mg, n = 6) was 0 n (%) and the “Best overall response: Stable disease” value ([1]; 60 mg, n = 6) was 0 n (%). For the same molecule, the “Objective response rate, % (95% CI)” value ([1]; 60 mg, n = 6) was 100.0 (54.1–100.0) %, the “median duration of response (DOR)” value [1, 3] was 7.9 months and 7.9 (95% CI 2.8–14.7) months and the “median progression-free survival (PFS)” value [1, 3] was 11.1 months and 11.1 (95% CI 4.6–16.7) months. For the same molecule, the “median time to response (TTR)” value [1, 3] was 1.9 months and 1.9 (95% CI 1.8–2.1) months, the “complete response (CR) rate” value ([1]; N = 9, 2 FL patients receiving 60 mg/day) was 22.2% and 22% and the “Best overall response: Complete response” value ([1]; Total, N = 9) was 2 (22.2) n (%). For the same molecule, the “Best overall response: Partial response” value ([1]; Total, N = 9) was 7 (77.8) n (%), the “Best overall response: Progressive disease” value ([1]; Total, N = 9) was 0 n (%) and the “Best overall response: Stable disease” value ([1]; Total, N = 9) was 0 n (%). The “Objective response rate, % (95% CI)” value ([1]; Total, N = 9) was 100.0 (66.4–100.0) %, the “patients achieved response at week 8” value ([1]; after 2 administration cycles) was 8/9 and the “decrease from baseline in the sum of perpendicular diameters” value ([1]; all patients, N = 9) was > 50%. The “best overall response of partial response (PR)” value ([1]; cohort 1, 45 mg) was 3/3, the “best overall response of CR” value ([1]; cohort 2, 60 mg) was 2/6 and the “best overall response of PR” value ([1]; cohort 2, 60 mg) was 4/6. The “patients regained response after switching back from IDT to CS” value ([1]; of patients switched back to CS after PD) was 2/4, the “dose-limiting toxicities (DLTs)” value [2] was “No dose-limiting toxicities (DLTs) were reported” and the “maximum tolerated dose (MTD)” value [2] was “not reached”. For the same molecule, the “objective response rate (ORR)” value [2] was 79% and the “recommended phase 2 dose (RP2D)” value [2] was 60 mg/day.

Source: publication PMC9668928, “Zandelisib (ME-401) in Japanese patients with relapsed or refractory indolent non-Hodgkin’s lymphoma: an open-label, multicenter, dose-escalation phase 1 study” (International Journal of Hematology, 2022)
